Assay results taken from patent publication US20230085307A1, “PYRIDAZINONE COMPOUND AND HERBICIDE” (NISSAN CHEMICAL CORPORATION, priority 2019, published 2023).

What was measured:
Italian ryegrass [1] = test: Test Example 5: herbicidal effect by foliage application, plastic box (Table 20, symbol K); type: in vivo, Italian ryegrass (Lolium multiflorum); conditions: amount of applied herbicide 320 g/ha; foliage application after 14-day growth; evaluated three weeks after application
In short: (§1)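 Plants were sown into sterilized diluvial soil under about 1.5 cm cover and kept in a greenhouse at 25° C. to 30° C. Fourteen days on, foliage received an even spray of the diluted emulsion. Herbicidal or crop effect was judged three weeks afterwards.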

wild oat [2] = test: Test Example 4: herbicidal effect by soil treatment (Table 19, symbol I); type: in vivo, wild oat (Avena fatua); conditions: amount of applied herbicide 320 g/ha
In short: (§2)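 Pre-emergence style soil spray: seeds under ~1.5 cm sterilized diluvial soil received a uniform coat of emulsion diluted to the predetermined herbicide amount. Greenhouse 25–30° C; readout at week three on previously defined criteria.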

late watergrass [3] = test: Test Example 1: herbicidal activity, application before weed generation under submerged conditions (Table 16, symbol A); type: in vivo, late watergrass (Echinochloa oryzicola); conditions: amount of applied herbicide 320 g/ha
In short: (§3)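 Alluvial soil was flooded to 4 cm depth, weed seeds were sown mixed and 2.5-leaf rice seedlings were transplanted. On sowing day, the compound's emulsion, diluted in water to a set dose, was applied to the water surface. Plants grew at 25–30 °C and were scored 0–5 after three weeks.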

wild oat [4] = test: Test Example 5: herbicidal effect by foliage application, plastic box (Table 20, symbol I); type: in vivo, wild oat (Avena fatua); conditions: amount of applied herbicide 320 g/ha; foliage application after 14-day growth; evaluated three weeks after application
In short: as §1

windgrass [5] = test: Test Example 4: herbicidal effect by soil treatment (Table 19, symbol L); type: in vivo, windgrass (Apera spica-venti); conditions: amount of applied herbicide 320 g/ha
In short: as §2

blackgrass [6] = test: Test Example 4: herbicidal effect by soil treatment (Table 19, symbol J); type: in vivo, blackgrass (Alopecurus myosuroides); conditions: amount of applied herbicide 320 g/ha
In short: as §2

rice flat sedge = test: Test Example 3: herbicidal effect by foliage application, Wagner pot (Table 18, symbol E); type: in vivo, rice flat sedge (Cyperus iria); conditions: 320 g/ha
In short: (§4)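 Plants were sown in alluvial soil held under 0.1–0.5 cm standing water and grown 14 days in a greenhouse at 25–30 °C. An emulsifiable formulation, water-diluted to the set dose, was then sprayed onto the foliage, and effects were scored three weeks later using previously defined criteria.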

redroot pigweed [7] = test: Test Example 5: herbicidal effect by foliage application, plastic box (Table 20, symbol N); type: in vivo, redroot pigweed (Amaranthus retroflexus); conditions: amount of applied herbicide 320 g/ha; foliage application after 14-day growth; evaluated three weeks after application
In short: as §1

lambsquarters [8] = test: Test Example 4: herbicidal effect by soil treatment (Table 19, symbol O); type: in vivo, lambsquarters (Chenopodium album); conditions: amount of applied herbicide 320 g/ha
In short: as §2

lambsquarters [9] = test: Test Example 5: herbicidal effect by foliage application, plastic box (Table 20, symbol O); type: in vivo, lambsquarters (Chenopodium album); conditions: amount of applied herbicide 320 g/ha; foliage application after 14-day growth; evaluated three weeks after application
In short: as §1

oval-leafed pondweed [10] = test: Test Example 1: herbicidal activity, application before weed generation under submerged conditions (Table 16, symbol C); type: in vivo, oval-leafed pondweed (Monochoria vaginalis); conditions: amount of applied herbicide 320 g/ha
In short: as §3

green foxtail [11] = test: Test Example 4: herbicidal effect by soil treatment (Table 19, symbol G); type: in vivo, green foxtail (Setaria viridis); conditions: amount of applied herbicide 320 g/ha
In short: as §2

Japanese bulrush [12] = test: Test Example 1: herbicidal activity, application before weed generation under submerged conditions (Table 16, symbol B); type: in vivo, Japanese bulrush (Schoenoplectus juncoides); conditions: amount of applied herbicide 320 g/ha
In short: as §3

southern crabgrass [13] = test: Test Example 5: herbicidal effect by foliage application, plastic box (Table 20, symbol F); type: in vivo, southern crabgrass (Digitaria ciliaris); conditions: amount of applied herbicide 320 g/ha; foliage application after 14-day growth; evaluated three weeks after application
In short: as §1

redroot pigweed [14] = test: Test Example 4: herbicidal effect by soil treatment (Table 19, symbol N); type: in vivo, redroot pigweed (Amaranthus retroflexus); conditions: amount of applied herbicide 320 g/ha
In short: as §2

Chinese sprangletop = test: Test Example 3: herbicidal effect by foliage application, Wagner pot (Table 18, symbol D); type: in vivo, chinese sprangletop (Leptochloa chinensis); conditions: 320 g/ha
In short: as §4

green foxtail [15] = test: Test Example 5: herbicidal effect by foliage application, plastic box (Table 20, symbol G); type: in vivo, green foxtail (Setaria viridis); conditions: amount of applied herbicide 320 g/ha; foliage application after 14-day growth; evaluated three weeks after application
In short: as §1

barnyard grass [16] = test: Test Example 3: herbicidal effect by foliage application, Wagner pot (Table 18, symbol H); type: in vivo, barnyard grass (Echinochloa crus-galli); conditions: 320 g/ha
In short: as §4

persian speedwell [17] = test: Test Example 5: herbicidal effect by foliage application, plastic box (Table 20, symbol R); type: in vivo, Persian speedwell (Veronica persica); conditions: amount of applied herbicide 320 g/ha; foliage application after 14-day growth; evaluated three weeks after application
In short: as §1

persian speedwell [18] = test: Test Example 4: herbicidal effect by soil treatment (Table 19, symbol R); type: in vivo, Persian speedwell (Veronica persica); conditions: amount of applied herbicide 320 g/ha
In short: as §2

velvetleaf [19] = test: Test Example 4: herbicidal effect by soil treatment (Table 19, symbol M); type: in vivo, velvetleaf (Abutilon theophrasti); conditions: amount of applied herbicide 320 g/ha
In short: as §2

southern crabgrass [20] = test: Test Example 4: herbicidal effect by soil treatment (Table 19, symbol F); type: in vivo, southern crabgrass (Digitaria ciliaris); conditions: amount of applied herbicide 320 g/ha
In short: as §2

chickweed [21] = test: Test Example 4: herbicidal effect by soil treatment (Table 19, symbol P); type: in vivo, common chickweed (Stellaria media); conditions: amount of applied herbicide 320 g/ha
In short: as §2

Italian ryegrass [22] = test: Test Example 4: herbicidal effect by soil treatment (Table 19, symbol K); type: in vivo, Italian ryegrass (Lolium multiflorum); conditions: amount of applied herbicide 320 g/ha
In short: as §2

barnyard grass [23] = test: Test Example 5: herbicidal effect by foliage application, plastic box (Table 20, symbol H); type: in vivo, barnyard grass (Echinochloa crus-galli); conditions: amount of applied herbicide 320 g/ha; foliage application after 14-day growth; evaluated three weeks after application
In short: as §1

velvetleaf [24] = test: Test Example 5: herbicidal effect by foliage application, plastic box (Table 20, symbol M); type: in vivo, velvetleaf (Abutilon theophrasti); conditions: amount of applied herbicide 320 g/ha; foliage application after 14-day growth; evaluated three weeks after application
In short: as §1

chickweed [25] = test: Test Example 5: herbicidal effect by foliage application, plastic box (Table 20, symbol P); type: in vivo, common chickweed (Stellaria media); conditions: amount of applied herbicide 320 g/ha; foliage application after 14-day growth; evaluated three weeks after application
In short: as §1

blackgrass [26] = test: Test Example 5: herbicidal effect by foliage application, plastic box (Table 20, symbol J); type: in vivo, blackgrass (Alopecurus myosuroides); conditions: amount of applied herbicide 320 g/ha; foliage application after 14-day growth; evaluated three weeks after application
In short: as §1

barnyard grass [27] = test: Test Example 4: herbicidal effect by soil treatment (Table 19, symbol H); type: in vivo, barnyard grass (Echinochloa crus-galli); conditions: amount of applied herbicide 320 g/ha
In short: as §2

windgrass [28] = test: Test Example 5: herbicidal effect by foliage application, plastic box (Table 20, symbol L); type: in vivo, windgrass (Apera spica-venti); conditions: amount of applied herbicide 320 g/ha; foliage application after 14-day growth; evaluated three weeks after application
In short: as §1

Japanese bulrush [29] = test: Test Example 2: herbicidal activity, application during weed generation under submerged conditions (Table 17, symbol B); type: in vivo, Japanese bulrush (Schoenoplectus juncoides); conditions: AAH 320 g/ha; application during weed generation, submerged conditions
Experimental: (§5) [Test Example 2] Herbicidal Activity Test by Application during Weed Generation under Submerged Conditions After alluvial soil was placed into 1/10000 are of Wagner pot, water was poured and mixed to form a submerged condition having a water depth of 4 cm. Seeds of late watergrass, Japanese bulrush, and oval-leafed pondweed were sowed in a mixed manner in the aforementioned pot, and the pot was placed in a greenhouse at 25° C. to 30° C. for growth of the plants. When late watergrass, Japanese bulrush, and oval-leafed pondweed were grown to one leaf stage to two leaf stage, the emulsion agent of the compound of the present invention prepared according to Formulation Example 2 was diluted with water so as to achieve a predetermined herbicide amount, and the diluted emulsion agent was applied to the surface of the water. Three weeks after the herbicide application, the effect of the herbicide on each plant was evaluated according to the criteria of Test Example 1.

oval-leafed pondweed [30] = test: Test Example 2: herbicidal activity, application during weed generation under submerged conditions (Table 17, symbol C); type: in vivo, oval-leafed pondweed (Monochoria vaginalis); conditions: AAH 320 g/ha; application during weed generation, submerged conditions
Experimental: as §5

late watergrass [31] = test: Test Example 2: herbicidal activity, application during weed generation under submerged conditions (Table 17, symbol A); type: in vivo, late watergrass (Echinochloa oryzicola); conditions: AAH 320 g/ha; application during weed generation, submerged conditions
Experimental: as §5

Structure (SMILES): CCCC(=O)Oc1c(C)nn(C)c(=O)c1-c1c(-c2ccccc2OCC)sc2cc(Cl)c(Cl)cc12 [5-046]
- Herbicidal effect by foliage application, K: Italian ryegrass (Italian ryegrass [1]): 0 (Herbicidal rate of 5% or less (almost no effect))
- I: wild oat, herbicidal effect grade (wild oat [2]): 0 (Herbicidal rate of 5% or less (almost no effect))
- Herbicidal effect, A: late watergrass (late watergrass [3]): 0 (Herbicidal rate of 5% or less (almost no effect))
- Herbicidal effect by foliage application, I: wild oat (wild oat [4]): 0 (Herbicidal rate of 5% or less (almost no effect))
- L: windgrass, herbicidal effect grade (windgrass [5]): 0 (Herbicidal rate of 5% or less (almost no effect))
- J: blackgrass, herbicidal effect grade (blackgrass [6]): 0 (Herbicidal rate of 5% or less (almost no effect))
- herbicidal effect on rice flat sedge (E) (rice flat sedge): 5 (Herbicidal rate of 90% or more (almost completely withered))
- Herbicidal effect by foliage application, N: redroot pigweed (redroot pigweed [7]): 5 (Herbicidal rate of 90% or more (almost completely withered))
- O: lambsquarters, herbicidal effect grade (lambsquarters [8]): 0 (Herbicidal rate of 5% or less (almost no effect))
- Herbicidal effect by foliage application, O: lambsquarters (lambsquarters [9]): 3 (Herbicidal rate of 40% or more and less than 70%)
- Herbicidal effect, C: oval-leafed pondweed (oval-leafed pondweed [10]): 0 (Herbicidal rate of 5% or less (almost no effect))
- G: green foxtail, herbicidal effect grade (green foxtail [11]): 0 (Herbicidal rate of 5% or less (almost no effect))
- Herbicidal effect, B: Japanese bulrush (Japanese bulrush [12]): 3 (Herbicidal rate of 40% or more and less than 70%)
- Herbicidal effect by foliage application, F: southern crabgrass (southern crabgrass [13]): 3 (Herbicidal rate of 40% or more and less than 70%)
- N: redroot pigweed, herbicidal effect grade (redroot pigweed [14]): 0 (Herbicidal rate of 5% or less (almost no effect))
- herbicidal effect on Chinese sprangletop (D) (Chinese sprangletop): 3 (Herbicidal rate of 40% or more and less than 70%)
- Herbicidal effect by foliage application, G: green foxtail (green foxtail [15]): 3 (Herbicidal rate of 40% or more and less than 70%)
- herbicidal effect on barnyard grass (H) (barnyard grass [16]): 5 (Herbicidal rate of 90% or more (almost completely withered))
- Herbicidal effect by foliage application, R: persian speedwell (persian speedwell [17]): 4 (Herbicidal rate of 70% or more and less than 90%)
- R: persian speedwell, herbicidal effect grade (persian speedwell [18]): 0 (Herbicidal rate of 5% or less (almost no effect))
- M: velvetleaf, herbicidal effect grade (velvetleaf [19]): 0 (Herbicidal rate of 5% or less (almost no effect))
- F: southern crabgrass, herbicidal effect grade (southern crabgrass [20]): 0 (Herbicidal rate of 5% or less (almost no effect))
- P: chickweed, herbicidal effect grade (chickweed [21]): 3 (Herbicidal rate of 40% or more and less than 70%)
- K: Italian ryegrass, herbicidal effect grade (Italian ryegrass [22]): 0 (Herbicidal rate of 5% or less (almost no effect))
- Herbicidal effect by foliage application, H: barnyard grass (barnyard grass [23]): 4 (Herbicidal rate of 70% or more and less than 90%)
- Herbicidal effect by foliage application, M: velvetleaf (velvetleaf [24]): 5 (Herbicidal rate of 90% or more (almost completely withered))
- Herbicidal effect by foliage application, P: chickweed (chickweed [25]): 5 (Herbicidal rate of 90% or more (almost completely withered))
- Herbicidal effect by foliage application, J: blackgrass (blackgrass [26]): 0 (Herbicidal rate of 5% or less (almost no effect))
- H: barnyard grass, herbicidal effect grade (barnyard grass [27]): 0 (Herbicidal rate of 5% or less (almost no effect))
- Herbicidal effect by foliage application, L: windgrass (windgrass [28]): 0 (Herbicidal rate of 5% or less (almost no effect))

Structure (SMILES): Cc1cc2sc(-c3ccc(OC(F)(F)F)cc3)c(-c3c(O)c(C)nn(C)c3=O)c2cc1C [5-109]
- herbicidal effect rating, B: Japanese bulrush (Japanese bulrush [29]): 0 (Herbicidal rate of 5% or less (almost no effect))
- herbicidal effect rating, C: oval-leafed pondweed (oval-leafed pondweed [30]): 0 (Herbicidal rate of 5% or less (almost no effect))
- herbicidal effect rating, A: late watergrass (late watergrass [31]): 2 (Herbicidal rate of 20% or more and less than 40%)
